In series [1] the target is T1, 5-LOX enzyme (Homo sapiens, UniProt P09917).
T1 construct: purchased Cayman Chemical K980-100
T1 sequence (P09917 1-674): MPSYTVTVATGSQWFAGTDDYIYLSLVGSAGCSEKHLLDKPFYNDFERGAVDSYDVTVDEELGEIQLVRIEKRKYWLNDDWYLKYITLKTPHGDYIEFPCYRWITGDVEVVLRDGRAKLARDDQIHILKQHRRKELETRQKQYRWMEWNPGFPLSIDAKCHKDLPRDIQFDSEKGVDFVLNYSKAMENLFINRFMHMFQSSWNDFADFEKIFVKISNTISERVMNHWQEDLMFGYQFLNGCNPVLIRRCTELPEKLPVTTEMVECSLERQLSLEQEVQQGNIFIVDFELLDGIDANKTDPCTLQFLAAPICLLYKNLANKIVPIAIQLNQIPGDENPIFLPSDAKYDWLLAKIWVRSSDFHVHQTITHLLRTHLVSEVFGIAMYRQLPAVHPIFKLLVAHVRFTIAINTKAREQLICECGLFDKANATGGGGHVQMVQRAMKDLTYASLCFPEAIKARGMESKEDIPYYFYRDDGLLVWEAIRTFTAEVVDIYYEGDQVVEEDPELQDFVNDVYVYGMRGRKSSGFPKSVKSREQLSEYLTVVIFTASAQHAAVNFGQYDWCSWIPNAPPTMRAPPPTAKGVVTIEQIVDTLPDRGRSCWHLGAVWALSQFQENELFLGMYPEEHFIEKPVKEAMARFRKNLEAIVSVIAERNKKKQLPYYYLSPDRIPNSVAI
Description: 5-LOX inhibition, Human Lipoxygenase Inhibitor Screening Assay (EIA) kit. Format: biochemical. As for the experimental part: The ability of the test compounds to inhibit the 5-LOX enzyme (IC50 value, μM) was detected using the Cayman Human Lipoxygenase Inhibitor Screening Assay (EIA) kit (catalog no. K980-100, Cayman Chemical). The IC50 values of test compounds were measured in µM according to the manufacturer’s instructions and reported method.

For series [2], the system named is Salmonella enterica (ATCC 14028). Description: Disc diffusion antimicrobial screening, Salmonella enterica. Particulars: 100 µg/disc. Format: cell-based. How it is done: (§1) All compounds were screened for their antimicrobial activity at the Microbiology and Immunology Department, Faculty of Pharmacy, Beni-Suef University. The antimicrobial activity screening was carried out using the disc diffusion method, as described earlier, with some adjustments.
(§2) For each indicator microbe, a solution of half McFarland turbidity was prepared in sterile saline, followed by surface streaking of the strains on Mueller-Hinton agar with a sterile cotton swab. Then, sterile filter paper discs (5 mm diameter) preloaded with 100 µg of each compound were applied to the surface of the pre-inoculated plates. Then, the plates were chilled at 4 °C for 100 min before being incubated overnight at the proper temperature for microbial growth. Finally, the diameter of the inhibition zones around each disc was measured to evaluate the antimicrobial activity of the compounds. Ciprofloxacin was used as a standard antibacterial agent at a concentration of 20 µg/disc. Furthermore, DMSO-loaded discs were used as a negative control.

For series [3], the target named is T2, COX-2 (Ovis aries, UniProt P79208).
T2 sequence (P79208 17-603): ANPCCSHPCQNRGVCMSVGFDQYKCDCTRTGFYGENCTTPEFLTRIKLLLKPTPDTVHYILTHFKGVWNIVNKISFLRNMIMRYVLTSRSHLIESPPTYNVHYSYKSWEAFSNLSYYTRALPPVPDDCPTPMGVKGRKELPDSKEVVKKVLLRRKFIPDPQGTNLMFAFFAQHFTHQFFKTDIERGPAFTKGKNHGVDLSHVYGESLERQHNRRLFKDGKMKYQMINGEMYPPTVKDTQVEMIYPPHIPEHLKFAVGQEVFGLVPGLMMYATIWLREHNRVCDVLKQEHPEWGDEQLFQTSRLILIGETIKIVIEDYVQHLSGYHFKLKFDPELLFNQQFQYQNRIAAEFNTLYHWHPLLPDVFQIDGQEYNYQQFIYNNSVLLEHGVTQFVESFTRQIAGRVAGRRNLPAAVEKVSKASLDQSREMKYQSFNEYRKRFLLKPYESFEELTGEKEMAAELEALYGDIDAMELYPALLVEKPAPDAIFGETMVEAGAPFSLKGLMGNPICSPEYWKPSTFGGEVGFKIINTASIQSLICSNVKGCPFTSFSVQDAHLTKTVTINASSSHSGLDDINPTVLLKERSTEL
Description: COX-2 inhibition, enzyme immune assay (EIA) kit. Type of series: biochemical, ovine. Particulars: for SI: lab report, COX1/COX2.

For series [4], the target named is T3, ovine COX-1 (Ovis aries, UniProt P05979).
T3 sequence (P05979 25-600): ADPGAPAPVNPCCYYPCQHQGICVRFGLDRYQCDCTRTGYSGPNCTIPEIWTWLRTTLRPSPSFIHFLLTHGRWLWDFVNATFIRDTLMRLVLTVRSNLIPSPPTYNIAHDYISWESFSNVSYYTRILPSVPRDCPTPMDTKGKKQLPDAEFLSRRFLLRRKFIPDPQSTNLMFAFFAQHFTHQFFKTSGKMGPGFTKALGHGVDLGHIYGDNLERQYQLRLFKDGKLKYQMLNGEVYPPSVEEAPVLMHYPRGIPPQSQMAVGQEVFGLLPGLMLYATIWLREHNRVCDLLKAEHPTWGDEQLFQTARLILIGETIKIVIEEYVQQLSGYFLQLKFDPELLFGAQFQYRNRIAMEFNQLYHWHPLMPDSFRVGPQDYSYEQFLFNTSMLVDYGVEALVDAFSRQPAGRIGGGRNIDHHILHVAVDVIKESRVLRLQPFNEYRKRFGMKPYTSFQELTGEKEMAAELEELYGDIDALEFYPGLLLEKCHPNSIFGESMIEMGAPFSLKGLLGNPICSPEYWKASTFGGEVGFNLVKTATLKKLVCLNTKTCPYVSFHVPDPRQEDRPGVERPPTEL
Description: COX-1 inhibition, enzyme immune assay (EIA) kit.
Description: Colorimetric enzyme immunoassay (EIA) kits were done to screen for the isozyme-specific inhibition.

Series [5] is described as follows: DPPH free radical assay. Type of series: biochemical. Particulars: 540 nm, relative to Trolox. As for the experimental part: (§3) Preparation of samples was occurred at the following concentrations: Samples 3a, 4a, 5b, 5d and 5e at final concentrations of 0.5 mg/ml in methanol: DMSO 9:1 v/v. Samples 4b and 4d at final concentrations 0.025 mg/ml in methanol: DMSO 9:1 v/v, sample 5a at final concentrations 0.25 mg/ml in methanol: DMSO 9:1 v/v, Sample 4c, 5c and 4e at final concentrations 0.05 mg/ml in methanol: DMSO 9:1 v/v, sample 3b at final concentration 0.75 mg/ml methanol: DMSO 9:1 v/v. A stock solution of 100 µM concentration of Trolox, a standard used in this experiment, was prepared in methanol from which seven concentrations were prepared, including 50, 40, 30, 20, 15, 10 and 5 µM.
The DPPH (2,2-diphenyl-1-picryl-hydrazyl-hydrate) free radical assay was carried out according to the method of Boly et al. 2016[39]. Briefly, freshly prepared DPPH reagent (100 µl, 0.1% in methanol) was added to 100 µl of the sample on 96 well plates (n = 6). The reaction was incubated at room temp for 30 min in the dark. After completion of the incubation time, the reduction in DPPH colour intensity was measured at 540 nm. Data obtained was represented as means ± SD, according to the following equation, percentage inhibition = [(Average absorbance of blank – average absorbance of the test)/(Average absorbance of blank)] *100. The results were recorded using a microplate reader, FluoStar Omega.
Microsoft Excel® was used to analyse the obtained results. The IC50 values were calculated using Graph pad Prism 6® by converting the concentrations to their logarithmic value and selecting the non-linear inhibitor regression equation (log (inhibitor) vs. normalised response – variable slope equation). The methods used and the final test report (R-SO7320) were obtained from Nawah Scientific.

Series [6] has as its system Escherichia coli (E. coli) (ATCC 25922). Description: Disc diffusion antimicrobial screening, E. coli. Format: cell-based. Particulars: 100 µg/disc. How it is done:
as §1, §2

Series [7] in a line: Dissolution of DPPH samples in DMSO/methanol. Type of series: physicochemical. As to conditions: DPPH sample preparation, methanol: DMSO 9:1 v/v. As for the experimental part: as §3
Series [8] relates to TNF-α in RAW264.7 macrophage cells. Description: In vitro measurement of TNF-α in RAW264.7 macrophage cells (RT-qPCR). Type of series: cell-based. An excerpt: Both Lipopolysaccharides (LPS) and hispidin were purchased from Sigma (Sigma-Aldrich, St. Louis, MO, USA)[40]. The foetal bovine serum (FBS) and Dulbecco’s modified Eagle’s medium (DMEM) were purchased from Hyclone (General Electric Healthcare Life Sciences, Mississauga, Canada), penicillin streptomycin (P/S) was purchased from Solarbio (Solarbio life sciences, Beijing, P. R. China). Results of all in vitro anti-inflammatory screening were obtained from the confirmatory diagnostic unit, VACSERA, Egypt.
DMEM was used to cultivate the macrophage cells RAW264.7 (Shanghai BOGO Industrial Co., Ltd., Shanghai, China), and supplemented with 10% FBS and 1% P/S (100 U/ml and […], respectively). […] They were treated with various concentrations of hispidin, then with 1 μg/ml LPS for the indicated time.
PBS (1 ml/well) was used to wash the cells in 24-well plates. […] For the experiments, CL Buffer included MgCl2 (M1028; Sigma) or RNasin Plus RNase Inhibitor (N2615; Promega). Before use, both Bio-Rad SPR and CL buffer were equilibrated to room temperature. […] Carefully, the resulting lysates were collected and either analysed immediately or stored frozen ([…]).
RT-qPCR analysis was performed in one-step SYBR Green RT-qPCR. […] A CFX96 real-time PCR instrument (Bio-Rad) was used under the following protocol: 50uC for 10 min, 95uC for 5 min, 95uC for 10 s/61uC for 15 s/72uC for 30 s.
Total RNA purified from cells was used as an RT-qPCR quantification standard.

Read-outs that look alike come from different tables or passages of the source.

In the case of `CCNC(=S)N/N=C/c1cn(S(C)(=O)=O)c2ccccc12` [Compound 4b, (E)-N-Ethyl-2{[1-(methylsulfonyl)-1H-indol-3yl]methylene}-hydrazinecarbothioamide], the melting point was 240 to 242 °C. Also, the IC50 in [1] was 29.2 ± 1.54 µM. Also, the 5-LOX %inh in series [1] (conc 0.1 (μM)) is listed as 4.17%. In series [1] (conc 1 (μM)), this compound came in with a 5-LOX %inh of 11.6%. In series [1] (conc 10 (μM)), the 5-LOX %inh amounted to 30.5%. The compound also yielded a 5-LOX %inh in series [1] (conc 100 (μM)) of 70.1%. Besides, the “antibacterial activity against Salmonella enterica” value in [2] is “selective antibacterial activity”. The SI in series [3] is given as 0.236. This compound yielded an IC50 in series [4] (IC50 COX-1) of 28.5 ± 0.8 µM. This compound also returned a COX1 %inh in series [4] (conc 0.1 (μM)) of 3.74%. In addition, in [4] (conc 1 (μM)), the COX1 %inh turned out to be 8.96%. In [4] (conc 10 (μM)), this compound registered a COX1 %inh of 27.4%. The COX1 %inh in series [4] (conc 100 (μM)) is recorded as 73.3%. In addition, in series [5] (30 min), the “DPPH test results (µM trolox equivalent/ 1mg sample ± SD)” value is given as 426.65 ± 28.02 µM trolox equivalent/ 1mg sample. In [5] (values in text), this compound had a DPPH anti-oxidant activity of 426.65 µM Trolox equivalent/mg. For the same compound, the “antibacterial activity against E. coli” value in series [6] was “selective antibacterial activity”.

Compound `CCN1CC(=O)S/C1=N\N=C\c1cn(S(C)(=O)=O)c2ccccc12` [Compound 5b] registered a melting point of 230 to 232 °C. In series [1], this compound displayed an IC50 of 47.8 ± 2.53 µM. The compound also returned a 5-LOX %inh in series [1] (conc 0.1 (μM)) of 1.82%. The same compound registered a 5-LOX %inh in series [1] (conc 1 (μM)) of 3.84%. In [1] (conc 10 (μM)), this compound showed a 5-LOX %inh of 15.1%. The 5-LOX %inh in [1] (conc 100 (μM)) is 73.1%. For the same compound, in series [7], the “solubility of sample in DMSO and methanol” value is “didn’t dissolve in DMSO nor in methanol”. In addition, the “S.I (IC50 COX-1/IC50 COX-2)” value in series [3] (COX-2 selectivity index) is 0.25. The SI in series [3] is listed as 0.249. The COX1 %inh in [4] (conc 0.1 (μM)) was 7.23%. The same compound had a COX1 %inh in series [4] (conc 1 (μM)) of 15.2%. This compound showed a COX1 %inh in series [4] (conc 10 (μM)) of 31.1%. The compound also had a COX1 %inh in series [4] (conc 100 (μM)) of 73.6%. Also, the IC50 in [4] (read-out: IC50 COX-1) was determined as 22.2 ± 0.63 µM. The TNF-α fold change in series [8] was 0.18.
